The numbers were not newly measured in US20070020642A1, “Structural interaction fingerprint” (priority 2003, published 2007), which cites them from elsewhere.

This data set deals with p38 (Homo sapiens, UniProt Q16539). As to conditions: result in words, known from the literature.
Sequence of p38 (Q16539 whole entry): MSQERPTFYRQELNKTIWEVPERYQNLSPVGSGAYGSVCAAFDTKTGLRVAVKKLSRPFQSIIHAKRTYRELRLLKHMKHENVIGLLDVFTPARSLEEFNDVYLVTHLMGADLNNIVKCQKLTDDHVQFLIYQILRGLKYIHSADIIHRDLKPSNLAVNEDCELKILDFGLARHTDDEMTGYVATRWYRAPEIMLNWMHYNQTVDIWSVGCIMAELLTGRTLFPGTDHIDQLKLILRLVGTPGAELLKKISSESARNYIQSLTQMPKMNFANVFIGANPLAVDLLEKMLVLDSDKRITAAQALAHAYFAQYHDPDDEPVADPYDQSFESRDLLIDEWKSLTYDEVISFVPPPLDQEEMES

Regarding `Fc1ccc(-c2nc3n(c2-c2ccncc2)CCS3)cc1` [SKF-86002], the p38 inhibition activity entry is reported as “potent p38 inhibitors”. On to `O=C(C(=C1SCS1)c1ccncc1)c1ccc(OC(F)(F)F)cc1` [Cmp-59076, 2-[1,3]Dithietan-2-pyridin-4-yl-1-(4-trifluoromethoxy-phenyl)-ethanone], for which the p38 inhibition activity entry was “no p38 inhibition activity”.
